Experimental data as given in ChEMBL document CHEMBL4507263, “Data for DCP probe BAY-474” (2021).
Calls of active or inactive are those of the source. The rule behind the calls is not given here.

Legend:
[1] = molecular target: Mitogen-activated protein kinase kinase kinase 20 (Homo sapiens) (UniProt Q9NYL2); settings: Compound concentration 1000.0 nM
[2] = molecular target: Serine/threonine-protein kinase PAK 3 (Homo sapiens) (UniProt O75914); settings: Compound concentration 1000.0 nM
[3] = molecular target: Hepatocyte growth factor receptor (Homo sapiens, UniProt P08581); assay: Homogeneous Time Resolved Fluorescence Assay
[4] = molecular target: Ephrin type-A receptor 7 (Homo sapiens) (UniProt Q15375); settings: Compound concentration 1000.0 nM
[5] = molecular target: Dual specificity tyrosine-phosphorylation-regulated kinase 1A (Homo sapiens) (UniProt Q13627); settings: Compound concentration 1000.0 nM
[6] = molecular target: T1, Muscarinic acetylcholine receptor M1 (Homo sapiens) (UniProt P11229); settings: Compound concentration 10.0 uM
T1 sequence (whole entry): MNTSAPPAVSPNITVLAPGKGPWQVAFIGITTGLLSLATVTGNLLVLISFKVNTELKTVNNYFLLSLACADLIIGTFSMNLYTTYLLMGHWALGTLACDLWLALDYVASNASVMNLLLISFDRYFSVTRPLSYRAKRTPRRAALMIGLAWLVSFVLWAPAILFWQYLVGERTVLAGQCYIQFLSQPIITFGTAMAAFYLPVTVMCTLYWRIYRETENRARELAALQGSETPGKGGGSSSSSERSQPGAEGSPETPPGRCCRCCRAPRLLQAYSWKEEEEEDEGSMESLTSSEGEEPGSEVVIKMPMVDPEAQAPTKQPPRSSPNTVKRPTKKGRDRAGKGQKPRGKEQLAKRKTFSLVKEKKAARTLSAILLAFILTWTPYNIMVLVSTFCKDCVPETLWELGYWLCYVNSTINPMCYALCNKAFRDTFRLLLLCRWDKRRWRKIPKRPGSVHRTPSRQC

[7] = molecular target: Serine/threonine-protein kinase haspin (Homo sapiens) (UniProt Q8TF76); settings: Compound concentration 1000.0 nM
[8] = molecular target: SNF-related serine/threonine-protein kinase (Homo sapiens) (UniProt Q9NRH2); settings: Compound concentration 1000.0 nM
[9] = molecular target: T2, 5-hydroxytryptamine receptor 1A (Homo sapiens) (UniProt P08908); settings: Compound concentration 10.0 uM
T2 sequence (whole entry): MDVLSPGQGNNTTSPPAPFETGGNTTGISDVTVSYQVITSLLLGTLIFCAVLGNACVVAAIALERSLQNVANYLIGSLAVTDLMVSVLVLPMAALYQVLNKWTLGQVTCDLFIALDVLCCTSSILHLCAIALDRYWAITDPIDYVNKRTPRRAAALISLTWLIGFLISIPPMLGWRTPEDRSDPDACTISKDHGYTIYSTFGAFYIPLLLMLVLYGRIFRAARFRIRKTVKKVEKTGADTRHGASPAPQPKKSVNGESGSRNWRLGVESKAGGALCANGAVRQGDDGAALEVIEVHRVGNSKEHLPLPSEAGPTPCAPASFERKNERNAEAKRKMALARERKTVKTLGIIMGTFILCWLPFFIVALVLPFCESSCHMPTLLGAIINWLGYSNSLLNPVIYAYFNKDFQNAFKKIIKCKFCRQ

[10] = molecular target: Muscarinic acetylcholine receptor M5 (Homo sapiens) (UniProt P08912); settings: Compound concentration 10.0 uM
[11] = molecular target: Muscle, skeletal receptor tyrosine-protein kinase (Homo sapiens) (UniProt O15146); settings: Compound concentration 1000.0 nM
[12] = molecular target: Serine/threonine-protein kinase 33 (Homo sapiens) (UniProt Q9BYT3); settings: Compound concentration 1000.0 nM
[13] = molecular target: Serine/threonine-protein kinase D3 (Homo sapiens) (UniProt O94806); settings: Compound concentration 1000.0 nM
[14] = molecular target: Discoidin domain-containing receptor 2 (Homo sapiens) (UniProt Q16832); settings: Compound concentration 1000.0 nM
[15] = molecular target: Serine/threonine-protein kinase D1 (Homo sapiens) (UniProt Q15139); settings: Compound concentration 1000.0 nM
[16] = molecular target: Ribosomal protein S6 kinase alpha-2 (Homo sapiens) (UniProt Q15349); settings: Compound concentration 1000.0 nM
[17] = molecular target: Bone morphogenetic protein receptor type-1A (Homo sapiens) (UniProt P36894); settings: Compound concentration 1000.0 nM
[18] = molecular target: Tyrosine-protein kinase Lyn (Homo sapiens) (UniProt P07948); settings: Compound concentration 1000.0 nM
[19] = molecular target: Mitogen-activated protein kinase kinase kinase 5 (Homo sapiens) (UniProt Q99683); settings: Compound concentration 1000.0 nM
[20] = molecular target: Beta-1 adrenergic receptor (Homo sapiens) (UniProt P08588); settings: Compound concentration 10.0 uM
[21] = molecular target: Alpha-2A adrenergic receptor (Homo sapiens) (UniProt P08913); settings: Compound concentration 10.0 uM
[22] = molecular target: Tyrosine-protein kinase FRK (Homo sapiens) (UniProt P42685); settings: Compound concentration 1000.0 nM
[23] = molecular target: Protein-tyrosine kinase 2-beta (Homo sapiens) (UniProt Q14289); settings: Compound concentration 1000.0 nM
[24] = molecular target: Casein kinase I isoform epsilon (Homo sapiens) (UniProt P49674); settings: Compound concentration 1000.0 nM
[25] = molecular target: Wee1-like protein kinase 2 (Homo sapiens) (UniProt P0C1S8); settings: Compound concentration 1000.0 nM
[26] = molecular target: Hormonally up-regulated neu tumor-associated kinase (Homo sapiens) (UniProt P57058); settings: Compound concentration 1000.0 nM
[27] = molecular target: Mitogen-activated protein kinase kinase kinase 5 (Homo sapiens) (UniProt Q99683); assay: ASK1 (h) Millipore kinase activity assay; settings: Compound concentration 1.0 uM
[28] = molecular target: Casein kinase I isoform delta (Homo sapiens) (UniProt P48730); assay: CK1delta (h) Millipore kinase activity assay; settings: Compound concentration 1.0 uM
[29] = molecular target: Tyrosine-protein kinase Fgr (Homo sapiens) (UniProt P09769); assay: Fgr (h) Millipore kinase activity assay; settings: Compound concentration 1.0 uM
[30] = molecular target: Fibroblast growth factor receptor 2 (Homo sapiens) (UniProt P21802); assay: FGFR2 (h) Millipore kinase activity assay; settings: Compound concentration 1.0 uM
[31] = molecular target: Serine/threonine-protein kinase BRSK2 (Homo sapiens) (UniProt Q8IWQ3); assay: BrSK2 (h) Millipore kinase activity assay; settings: Compound concentration 1.0 uM
[32] = molecular target: Serine/threonine-protein kinase MARK1 (Homo sapiens) (UniProt Q9P0L2); assay: MARK1 (h) Millipore kinase activity assay; settings: Compound concentration 1.0 uM
[33] = molecular target: Casein kinase II subunit alpha' (Homo sapiens) (UniProt P19784); assay: CK2alpha2 (h) Millipore kinase activity assay; settings: Compound concentration 1.0 uM
[34] = molecular target: Cyclin-dependent kinase 5/CDK5 activator 1 (Homo sapiens) (UniProt Q00535+Q15078); assay: CDK5/p35 (h) Millipore kinase activity assay; format: protein-complex assay; settings: Compound concentration 1.0 uM

Sequence of Hepatocyte growth factor receptor (P08581 whole entry): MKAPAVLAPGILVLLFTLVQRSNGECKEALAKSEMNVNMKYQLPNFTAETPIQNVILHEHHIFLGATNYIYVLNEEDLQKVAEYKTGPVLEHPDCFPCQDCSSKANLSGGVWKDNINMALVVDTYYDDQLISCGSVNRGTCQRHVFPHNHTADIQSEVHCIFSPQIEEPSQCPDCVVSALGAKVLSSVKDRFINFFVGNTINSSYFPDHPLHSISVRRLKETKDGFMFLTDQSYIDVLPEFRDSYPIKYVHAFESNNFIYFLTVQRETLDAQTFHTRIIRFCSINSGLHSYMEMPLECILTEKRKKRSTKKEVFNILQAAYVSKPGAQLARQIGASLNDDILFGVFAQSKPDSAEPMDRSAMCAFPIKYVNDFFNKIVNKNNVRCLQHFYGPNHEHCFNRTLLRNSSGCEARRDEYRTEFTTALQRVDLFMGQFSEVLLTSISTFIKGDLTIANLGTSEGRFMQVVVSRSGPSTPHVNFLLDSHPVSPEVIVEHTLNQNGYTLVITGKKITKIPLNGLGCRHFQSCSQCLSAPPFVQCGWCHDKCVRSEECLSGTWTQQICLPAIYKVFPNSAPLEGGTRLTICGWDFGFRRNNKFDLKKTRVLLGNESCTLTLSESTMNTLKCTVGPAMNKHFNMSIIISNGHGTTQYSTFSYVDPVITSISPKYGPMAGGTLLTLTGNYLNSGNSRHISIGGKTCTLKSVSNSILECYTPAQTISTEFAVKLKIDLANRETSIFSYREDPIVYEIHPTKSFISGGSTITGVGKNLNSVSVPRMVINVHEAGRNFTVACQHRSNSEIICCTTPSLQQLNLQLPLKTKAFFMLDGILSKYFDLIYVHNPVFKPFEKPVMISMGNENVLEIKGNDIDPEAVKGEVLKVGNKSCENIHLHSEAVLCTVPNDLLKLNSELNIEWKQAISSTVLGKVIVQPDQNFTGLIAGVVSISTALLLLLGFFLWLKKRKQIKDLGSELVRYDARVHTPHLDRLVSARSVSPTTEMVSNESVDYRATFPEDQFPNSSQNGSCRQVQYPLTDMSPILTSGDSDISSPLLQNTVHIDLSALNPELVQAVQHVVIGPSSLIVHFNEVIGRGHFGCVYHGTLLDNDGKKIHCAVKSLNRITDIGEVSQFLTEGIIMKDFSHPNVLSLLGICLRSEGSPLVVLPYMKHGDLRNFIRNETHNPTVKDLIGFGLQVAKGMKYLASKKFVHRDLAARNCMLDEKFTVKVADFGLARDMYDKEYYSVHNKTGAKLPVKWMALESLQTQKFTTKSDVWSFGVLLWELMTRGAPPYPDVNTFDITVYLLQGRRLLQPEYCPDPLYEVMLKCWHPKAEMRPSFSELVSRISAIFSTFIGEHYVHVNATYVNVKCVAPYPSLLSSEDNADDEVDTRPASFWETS
Sequence of Alpha-2A adrenergic receptor (Homo sapiens) (P08913 whole entry): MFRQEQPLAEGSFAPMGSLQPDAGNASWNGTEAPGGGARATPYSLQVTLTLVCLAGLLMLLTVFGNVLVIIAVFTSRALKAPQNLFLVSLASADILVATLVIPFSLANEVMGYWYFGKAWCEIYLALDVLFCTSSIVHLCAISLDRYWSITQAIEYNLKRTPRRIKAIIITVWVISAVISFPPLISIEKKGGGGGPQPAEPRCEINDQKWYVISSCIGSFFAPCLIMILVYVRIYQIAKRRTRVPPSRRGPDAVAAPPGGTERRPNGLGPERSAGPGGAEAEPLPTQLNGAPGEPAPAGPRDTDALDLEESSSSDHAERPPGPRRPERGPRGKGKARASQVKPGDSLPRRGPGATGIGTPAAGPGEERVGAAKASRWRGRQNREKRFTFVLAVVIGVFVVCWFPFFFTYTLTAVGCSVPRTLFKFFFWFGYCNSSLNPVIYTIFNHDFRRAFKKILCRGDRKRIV
Sequence of Mitogen-activated protein kinase kinase kinase 5 (Homo sapiens) (Q99683 whole entry, canonical isoform): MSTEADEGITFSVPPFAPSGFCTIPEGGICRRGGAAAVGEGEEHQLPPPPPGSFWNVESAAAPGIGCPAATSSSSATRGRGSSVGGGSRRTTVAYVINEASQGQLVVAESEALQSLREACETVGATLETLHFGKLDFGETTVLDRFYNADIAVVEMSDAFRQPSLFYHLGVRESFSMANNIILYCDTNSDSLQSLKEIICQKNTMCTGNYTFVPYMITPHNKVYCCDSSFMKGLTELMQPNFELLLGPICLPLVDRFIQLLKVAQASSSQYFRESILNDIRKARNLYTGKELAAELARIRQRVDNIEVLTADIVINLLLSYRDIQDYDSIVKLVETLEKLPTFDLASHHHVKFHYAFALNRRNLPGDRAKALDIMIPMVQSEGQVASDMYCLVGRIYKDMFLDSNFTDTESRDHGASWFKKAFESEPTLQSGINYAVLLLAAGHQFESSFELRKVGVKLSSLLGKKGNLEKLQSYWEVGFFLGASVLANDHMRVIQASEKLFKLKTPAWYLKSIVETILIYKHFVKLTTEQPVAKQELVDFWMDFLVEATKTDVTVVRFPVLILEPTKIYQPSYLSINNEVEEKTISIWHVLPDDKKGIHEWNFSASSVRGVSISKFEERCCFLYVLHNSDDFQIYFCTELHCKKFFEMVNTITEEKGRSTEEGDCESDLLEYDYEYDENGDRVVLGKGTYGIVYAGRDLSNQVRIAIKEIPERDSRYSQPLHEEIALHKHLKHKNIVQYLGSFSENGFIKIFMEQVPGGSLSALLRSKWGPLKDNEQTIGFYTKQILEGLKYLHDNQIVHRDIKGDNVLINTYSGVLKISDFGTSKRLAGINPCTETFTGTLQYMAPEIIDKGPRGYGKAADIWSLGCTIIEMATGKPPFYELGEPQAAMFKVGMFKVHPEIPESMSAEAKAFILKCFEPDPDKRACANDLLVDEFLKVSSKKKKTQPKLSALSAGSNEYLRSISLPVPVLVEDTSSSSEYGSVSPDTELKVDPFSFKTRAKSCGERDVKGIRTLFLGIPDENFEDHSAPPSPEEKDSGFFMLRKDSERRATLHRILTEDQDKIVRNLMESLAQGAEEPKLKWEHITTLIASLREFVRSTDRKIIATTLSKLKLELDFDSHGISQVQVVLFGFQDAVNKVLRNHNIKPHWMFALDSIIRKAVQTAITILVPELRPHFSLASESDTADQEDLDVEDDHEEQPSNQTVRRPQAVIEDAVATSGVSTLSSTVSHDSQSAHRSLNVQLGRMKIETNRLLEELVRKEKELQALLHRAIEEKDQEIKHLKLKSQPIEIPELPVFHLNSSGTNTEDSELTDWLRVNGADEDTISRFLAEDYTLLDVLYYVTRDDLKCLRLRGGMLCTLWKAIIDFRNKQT
Sequence of Beta-1 adrenergic receptor (Homo sapiens) (P08588 whole entry, looked up): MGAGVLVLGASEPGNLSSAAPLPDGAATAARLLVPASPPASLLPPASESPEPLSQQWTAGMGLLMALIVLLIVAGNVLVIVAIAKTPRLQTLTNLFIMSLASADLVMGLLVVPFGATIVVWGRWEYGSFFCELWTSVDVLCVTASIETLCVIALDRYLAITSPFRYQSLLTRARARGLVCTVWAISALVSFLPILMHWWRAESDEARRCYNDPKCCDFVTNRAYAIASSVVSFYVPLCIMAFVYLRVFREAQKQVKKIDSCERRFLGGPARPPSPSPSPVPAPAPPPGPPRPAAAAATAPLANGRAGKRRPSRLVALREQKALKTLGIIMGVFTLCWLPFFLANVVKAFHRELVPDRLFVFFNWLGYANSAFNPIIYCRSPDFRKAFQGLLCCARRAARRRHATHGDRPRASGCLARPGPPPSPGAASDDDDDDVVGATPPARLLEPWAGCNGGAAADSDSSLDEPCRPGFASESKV
Sequence of Muscarinic acetylcholine receptor M5 (Homo sapiens) (P08912 whole entry): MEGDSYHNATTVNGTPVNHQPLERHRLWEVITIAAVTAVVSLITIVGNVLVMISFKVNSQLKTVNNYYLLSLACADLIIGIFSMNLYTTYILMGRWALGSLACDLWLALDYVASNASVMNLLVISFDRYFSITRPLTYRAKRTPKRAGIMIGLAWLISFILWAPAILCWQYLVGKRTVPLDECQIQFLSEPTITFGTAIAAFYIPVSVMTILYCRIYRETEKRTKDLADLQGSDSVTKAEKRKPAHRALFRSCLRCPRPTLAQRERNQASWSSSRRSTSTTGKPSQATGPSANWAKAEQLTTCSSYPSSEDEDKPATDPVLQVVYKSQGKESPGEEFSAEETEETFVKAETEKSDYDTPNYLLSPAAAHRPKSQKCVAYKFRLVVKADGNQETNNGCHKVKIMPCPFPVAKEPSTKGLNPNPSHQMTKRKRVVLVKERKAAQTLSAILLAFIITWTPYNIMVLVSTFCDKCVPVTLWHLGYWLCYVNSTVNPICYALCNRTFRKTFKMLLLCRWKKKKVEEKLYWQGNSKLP
Sequence of Casein kinase I isoform epsilon (Homo sapiens) (P49674 whole entry, looked up, canonical isoform): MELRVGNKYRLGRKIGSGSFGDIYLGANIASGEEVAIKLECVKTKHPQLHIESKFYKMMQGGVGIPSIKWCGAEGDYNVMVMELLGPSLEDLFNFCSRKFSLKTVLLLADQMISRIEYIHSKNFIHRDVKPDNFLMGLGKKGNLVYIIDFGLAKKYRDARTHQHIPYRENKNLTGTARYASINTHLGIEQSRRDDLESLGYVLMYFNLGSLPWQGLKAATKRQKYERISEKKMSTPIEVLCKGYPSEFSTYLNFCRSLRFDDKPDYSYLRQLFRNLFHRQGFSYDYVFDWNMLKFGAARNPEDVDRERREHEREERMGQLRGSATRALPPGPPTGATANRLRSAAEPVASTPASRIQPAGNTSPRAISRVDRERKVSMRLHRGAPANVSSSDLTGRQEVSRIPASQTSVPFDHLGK
Sequence of Casein kinase II subunit alpha' (Homo sapiens) (P19784 whole entry, looked up): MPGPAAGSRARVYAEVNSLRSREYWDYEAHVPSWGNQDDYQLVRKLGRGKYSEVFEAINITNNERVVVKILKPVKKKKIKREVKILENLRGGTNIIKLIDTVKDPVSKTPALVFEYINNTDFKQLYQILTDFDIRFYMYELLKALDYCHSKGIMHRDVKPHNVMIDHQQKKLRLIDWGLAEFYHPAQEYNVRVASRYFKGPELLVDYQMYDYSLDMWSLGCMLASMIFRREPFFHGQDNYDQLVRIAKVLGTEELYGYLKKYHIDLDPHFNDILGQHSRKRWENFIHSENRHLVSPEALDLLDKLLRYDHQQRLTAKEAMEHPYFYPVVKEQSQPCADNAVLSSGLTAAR

CC1=C(C#N)[C@@H](c2ccc3[nH]nc(C)c3c2)C(C#N)=C(c2ccc(Cl)cc2)N1 [BAY-827]
residual activity [1]: 93.6%
residual activity [2]: 100%
IC50 [3]: 11 µM (not active)
residual activity [4]: 91.2%
residual activity [5]: 100%
inhibition [6]: 8.17%
residual activity [7]: 100%
residual activity [8]: 100%
inhibition [9]: 2.67%
inhibition [10]: 9.95%
residual activity [11]: 100%
residual activity [12]: 90.9%
residual activity [13]: 100%
residual activity [14]: 99.4%
residual activity [15]: 81.1%
residual activity [16]: 85.4%
residual activity [17]: 98.6%
residual activity [18]: 96.8%
residual activity [19]: 100%
inhibition [20]: 4.66%
inhibition [21]: 7.83%
residual activity [22]: 100%
residual activity [23]: 100%
residual activity [24]: 91.7%
residual activity [25]: 100%
residual activity [26]: 81.4%

CC1=C(C#N)C(c2ccc3[nH]nc(C)c3c2)C(C#N)=C(C)N1 [BAY-474]
IC50 [3]: < 0.001 µM (active)
inhibition [6]: 13.9%
inhibition [9]: -5.32%
inhibition [10]: 5.48%
inhibition [27]: -6%
inhibition [28]: 3%
inhibition [29]: 14%
inhibition [30]: 17%
inhibition [20]: 2.16%
inhibition [21]: -3.48%
inhibition [31]: 21%
inhibition [32]: 11%
inhibition [33]: -2%
inhibition [34]: -1%
